{"source": "the NIST ThermoML archive (doi:10.1016/j.jct.2017.03.010)", "conditions": "Liquid, Closed cell (Static) method", "note": "± gives the expanded uncertainty stated by the source."}
{"molecule": "FC(F)C(F)F", "note": "[1,1,2,2-tetrafluoroethane]", "values": [{"measurement": "vapor or sublimation pressure", "setting": "303.15 K", "result": "613.8 ± 2.1", "unit": "kPa"}, {"measurement": "vapor or sublimation pressure", "setting": "313.15 K", "result": "817.1 ± 2.7", "unit": "kPa"}, {"measurement": "vapor or sublimation pressure", "setting": "323.15 K", "result": "1065.9 ± 3.5", "unit": "kPa"}, {"measurement": "vapor or sublimation pressure", "setting": "333.15 K", "result": "1368.5 ± 4.5", "unit": "kPa"}, {"measurement": "vapor or sublimation pressure", "setting": "343.15 K", "result": "1730.2 ± 5.7", "unit": "kPa"}]}
